Consider one molecule from patent US9242009B2, “Compositions and methods to treat neurodegenerative diseases” (The General Hospital Corporation, priority 2012, dated 2016).

In one test the test system is SH-SY5Y cells. The test can be described thus: Intracellular sulfide levels in SH-SY5Y cells (HPLC). In kind it is cell-based, Human. To be noted: 20 μM, SH-SY5Y. Here is the method:
Human neuroblastoma SH-SY5Y cells were cultured in Eagle's medium/Ham's F-12 50/50 Mix (DMEM/F12, Cellgro by Mediatech, Inc.) supplemented with 10% fetal bovine serum (FBS) and 1% penicillin/streptomycin. The cells were seeded into 96 well plates (2×10^4 cells per well) for OGD and measurements of toxicity, 6 cm dishes (5×10^5 cells per dish) for measurements of sulfide and reduced-glutathione (GSH), or 10 cm dishes (1×10^6 cells per dish) for measurements of intracellular calcium. Cell culture medium was replaced every 2 days, and the cultures were maintained at 37° C. in 95% air/5% CO2 in a humidified incubator. Cells were used after reaching 80% confluent.
Concentration of free sulfide in SH-SY5Y cells was measured using high performance liquid chromatography (HPLC) (Tokuda et al. (2012) Antioxidants & Redox Signaling). Briefly, SH-SY5Y cells were seeded into 6 cm dishes (5×10^5 cells per dish). After being 80% confluent, 20 μM H2S donor was added to the dish and incubated at 37° C. Cells were washed with ice-cold Tris-HCl (100 mM, PH 9.5, DTPA 0.1 mM) buffer, scraped, transferred to microfuge tubes, and centrifuged. MBB (10 mM in acetonitrile, 50 μl) was added to 100 μl of supernatant. After 30 minutes of incubation at room temperature in dark, 50 μl of 200 mM 5-sulfosalicylic acid (SSA) was added. After centrifugation, supernatant was analyzed by HPLC. For sulfide levels in medium, after centrifugation, supernatant was used for MBB reaction as above.
In contrast, incubation of SH-SY5Y cells with S-memantine increased intracellular sulfide level more markedly than incubation with ACS48 at all time points after addition (˜10 fold at 4 hours, P<0.001 by two-way ANOVA with Bonferroni post-test). In a separate experiment, we examined whether or not incubation with memantine itself or incubation with ACS48 and memantine would affect intracellular sulfide levels in SH-SY5Y cells.

Test [1] has as its system murine primary cortical neurons. The test can be described thus: Oxygen-glucose deprivation (OGD) of murine primary cortical neurons, LDH release. In kind it is cell-based, mice. Here is the method: Primary neuronal cultures were prepared from the cortex of embryonic day 15 C57BL6J mice. In brief, brains were harvested and the hemispheres were dissected under a microscope. The cortical neurons were dissociated in Neurobasal medium (Gibco) with B27 supplement (antioxidant plus, Gibco). The cells were seeded into 24 well plates coated with poly-D-lysine (Becton Dickinson Labware, 2×10^5 cells per well), followed by the medium-change with fresh one on the next day. The half of culture medium was replaced with Neurobasal medium witn B27 supplement (antioxidant minus) every other day, and the cultures were maintained at 37° C. in 95% air/5% CO2 in a humidified incubator. Cells were used for experiments 11 days after seeding.
OGD for primary cortical neurons was performed with the similar protocol as above (FIG. 3B). Briefly, the culture medium was replaced with deoxygenated Neurobasal medium without glucose, and then placed in the hypoxic chamber for 2.5 hours. After OGD, the medium was replaced with Neurobasal medium with glucose and incubated for 21 hours at 37° C. in 95% air/5% CO2 in a humidified incubator. […]
A microtiter plate containing cells was centrifuged at 250×g for 10 minutes and the supernatant was used for LDH measurement with LDH Cytotoxicity Detection Kit (Roche). […] Percentage of released LDH was calculated with following formula: {LDH (medium)/LDH (medium+cell)×100}. […]
(In general: LDH in the medium is a marker of cell lysis.)

The next test has as its system cleaved caspase-3. The test can be described thus: Immunoblot of cleaved caspase-3 in SH-SY5Y after OGD. In kind it is cell-based, Human. To be noted: 50 μM added 8 hours after end of OGD; 15 hours OGD, 24 hours reoxygenation. The protocol: OGD for SH-SY5Y was performed by placing cells in a hypoxia chamber ([…] Technologies Inc.) for 15 hours, followed by 24 hours of reoxygenation as previously reported (FIG. 3A) (Serra-Pérez et al. (2008) Journal of Neurochemistry 106, 1237-1247). Briefly, medium was replaced with glucose-free RPMI 1640 with L-glutamine (Cellgro by Mediatech, Inc), deoxygenated with anaerobic gas mixture (93% N2-5% CO2-2% H2) for 30 minutes before use. Cells were then placed in a hypoxia chamber, flushed with anaerobic gas mixture (93% N2-5% CO2-2% H2) and incubated at 37° C. […]
Protein levels in SH-SY5Y were determined by standard immunoblot techniques using primary antibodies (1:1,000, Cell Signaling Technology Inc., Danvers, Mass.) against cleaved caspase-3, caspase-3, phosphorylated Akt at threonine 308, Akt, phosphorylated ERK1/2 at threonine 202 and tyrosine 204, Erk1/2, β-tubulin and phosphorylated tau protein at serine 202 and threonine 205 (1:250; Thermo scientific, MN1020), tau protein (1:1000; Thermo scientific, MN1010). Bound antibody was detected with a horseradish peroxidase-linked antibody directed against rabbit IgG (1:10,000˜1:25,000; Cell Signaling Technology Inc.), or mouse IgG (1:2,000; GE healthcare, NA931V) and was visualized using chemiluminescence with ECL Advance kit (GE healthcare).

Regarding `C[C@]12C[C@@H]3C[C@](C)(C1)C[C@@](NC(=O)c1ccc(-c4cssc4=S)cc1)(C3)C2` [S-memantine, N-((1r,3R,5S,7r)-3,5-dimethyladamantan-1-yl)-4-(3-thioxo-3H-1,2-dithiol-4-yl)-benzamide], in the test on SH-SY5Y cells (37° C.), the Intracellular sulfide levels result is listed as “increased intracellular sulfide levels”. Moreover, the “Intracellular sulfide level relative to incubation with ACS48” value with SH-SY5Y cells (at 4 hours) is approximately 10 fold. Besides, the “Neuroprotective effect after OGD (LDH release)” value in test [1] (50 μM added 30 minutes after end of OGD, 2.5 hours OGD, 21 hours reoxygenation) was “more robust neuroprotective effects compared to ACS48 or memantine”. Further, the “Cell viability after OGD” value in test [1] (incubation starting at 30 minutes or 2 hours after OGD) is “improved”. Besides, the “Caspase-3 activation after OGD” value with cleaved caspase-3 was “prevented caspase-3 activation”.
